Columns and labels:
Type in all cases: cell-based
all species tested = experiment: Growth curves with increasing concentrations of ARM-1; conditions: across all species tested
Procedure: (§1) FIG. 10 depicts growth curves of indicated species in the presence of increasing concentrations of ARM-1. Precultures of each species were grown with appropriate antibiotic selection, then diluted back to OD600 0.05 in a 96 well plate. Indicated concentrations of ARM-1 were added, and plates incubated overnight at 37° C. with shaking. OD measurements taken every 60 s by BioTek plate reader. Data shown are representative of at least 6 biological replicates. Growth curve for S. typhimurium also confirms MIC of 400 μM ARM-1 for this species, with no growth observed over the experimental timeframe.

S. typhimurium [1] = experiment: as above
Procedure: as §1

P. aeruginosa = experiment: Evolution assay of antibiotic resistance; conditions: 100 μM ARM-1, rifampicin
Text: (§2) FIGS. 4A-4C depict how ARM-1 inhibits the evolution of antibiotic resistance. FIG. 4A depicts the minimum inhibitory concentration of ARM-1 in E. coli and S. aureus. FIGS. 4B-4C depict the evolution of indicated species against (FIG. 4B) rifampicin and (FIG. 4C) trimethoprim in the presence of ARM-1. Heatmaps show median MIC over time. Concentrations are indicated to the right of each plot. Each strain and antibiotic is the result of at least 12 biological replicates. Concentration of ARM-1 used against L. monocytogenes, P. aeruginosa, and S. aureus is 100 μM. Concentration of ARM-1 used against S. typhimurium is 50 μM. Populations of bacteria are grown overnight in a series of increasing antibiotic concentrations, with or without ARM-1 present. The following day, the population from the highest tolerated concentration is re-challenged with higher concentrations of antibiotic. The median MIC is determined after each 24 hour growth period as the lowest concentration of antibiotic at which at least 50% growth impairment is observed compared to an untreated population. MIC fold change is reported as the change in MIC from the first day of growth to each subsequent day.
(§3) Next, the effect of ARM-1 on the evolution of antibiotic resistance was examined. Genetic deletion of Mfd is known to reduce the rates and extent of resistance development in laboratory evolution experiments. Using an assay previously developed, the impact of ARM-1 was assessed on resistance development across diverse pathogens and in response to multiple classes of antibiotics. In these experiments, bacteria are challenged with increasing concentrations of antibiotic over a minimum of least 55 generations. Reduced resistance development in bacteria treated with ARM-1 was observed compared to those that were untreated, in all species and antibiotics tested. […] This pattern was also observed in P. aeruginosa, S. aureus, and L. monocytogenes, with ARM-1 treatment resulting in 80, […] reduction in resistance to rifampicin, respectively (FIG. 4B). […] Sequencing of relevant resistance loci over the course of treatment confirmed that these observations are due to genetic changes; many more resistance mutations arise in untreated populations compared to those treated with ARM-1 (Table 1). […] Furthermore, patient isolates of S. typhimurium, S. aureus, and P. aeruginosa which already carry resistance mutations to other antibiotics were used, and still observed a reduction in resistance development during experiments. […]
(§4) Evolution experiments were performed for the indicated strains. […] Optical densities were subsequently measured in an Epoch2 microplate spectrophotometer (BioTek). […]

S. aureus [2] = experiment: Evolution assay of antibiotic resistance; conditions: 100 μM ARM-1, rifampicin
Text: as §2, §3, §4

S. typhimurium [3] = experiment: Evolution assay of antibiotic resistance; conditions: challenged with rifampicin or trimethoprim, or phosphomycin; 50 μM ARM-1
Text: as §2, §3, §4

L. monocytogenes = experiment: Evolution assay of antibiotic resistance; conditions: 100 μM ARM-1, rifampicin
Text: as §2, §3, §4

E. coli = experiment: Minimum inhibitory concentration of ARM-1 alone; conditions: Escherichia coli, constant for 196 hours of exposure
Text: as §2, with “The median MIC is determined after each 24 hour growth period as the lowest concentration of antibiotic at which at least 50% growth impairment is observed compared to an untreated population. MIC fold change is reported as the change in MIC from the first day of growth to each subsequent day.” left out
(§5) Next, the effect of ARM-1 on the evolution of antibiotic resistance was examined. […] Using an assay previously developed, the impact of ARM-1 was assessed on resistance development across diverse pathogens and in response to multiple classes of antibiotics. […]
as §4

S. aureus [4] = experiment: Minimum inhibitory concentration of ARM-1 alone; conditions: Staphylococcus aureus, constant for 196 hours of exposure
Text: as §2, with “The median MIC is determined after each 24 hour growth period as the lowest concentration of antibiotic at which at least 50% growth impairment is observed compared to an untreated population. MIC fold change is reported as the change in MIC from the first day of growth to each subsequent day.” left out
as §5, §4

HeLa cells = experiment: Mammalian cell cytotoxicity (CellTox Green); conditions: during the timeframe of the infection experiment
Procedure: FIGS. 9A-9B depict the cytotoxicity of ARM-1 against indicated mammalian cell lines. FIG. 9A depicts toxicity reported from original Calibr screen data against HEK293T and HepG2 cell lines. FIG. 9B depicts toxicity determined using Promega CellTox reagents following 8 hours of exposure of HeLa, Caco-2, and HEK293 cells to varying concentrations of ARM-1. Relative fluorescent units (RFUs) reported relative to solvent and no substrate controls.
Cytotoxicity of ARM-1 against HeLa, Caco-2, and HEK293 cells was determined using CellTox Green Cytotoxicity Assay (Promega) according to manufacturer instructions. ARM-1 was diluted in DMSO and applied to the culture such that final concentrations of DMSO were less than 0.05%. Reported toxicity is relative to a DMSO only control. Cells were incubated with ARM-1 for 24 hours prior to addition of reporter dye. Fluorescence was read on a BioTek Synergy Neo plate reader.

Cc1cc(Br)ccc1-c1ccc(CNCCCN(C)C)o1 [ARM-1, N^1-((5-(4-bromo-2-methylphenyl)furan-2-yl)methyl)-N^3,N^3-dimethylpropane-1,3-diamine]
doubling time, treated versus untreated population (all species tested): consistent
MIC (S. typhimurium [1]; Salmonella enterica, TYPHIMURIUM, growth curve, no growth observed over the experimental timeframe): 400 µM
growth defects (S. typhimurium [1]; at the ARM-1 concentrations used for ChIP): no growth defects
reduction in resistance to rifampicin (P. aeruginosa): 80 FOLD
reduction in resistance to rifampicin (S. aureus [2]): 800 FOLD
difference in median MIC fold change between untreated and treated (S. typhimurium [3]): ≥ 100 fold
reduction in resistance to rifampicin (L. monocytogenes): 1000 FOLD
MIC (E. coli): 400 µM
MIC (S. aureus [4]): 400 µM
cytotoxic effects on HeLa cells (HeLa cells): no cytotoxic effects
